Assay results from patent US20170172959A1, “D-SERINE FOR THE TREATMENT OF VISUAL SYSTEM DISORDERS” (Allergan, Inc., priority 2011, published 2017).
Entries after “also recorded” stand apart in the source; their conditions may differ.

Experiments:
[1] = system: primary visual cortex of adult rats; assay: LTP in visual cortex slice (fEPSP amplitude after theta burst stimulation); assay type: cell-based; conditions: adult Sprague Dawley rat visual cortex slices; compound infused 15 minutes before LTP induction; LTP values at 30 minutes after induction; FIG. 1
Protocol: LTP in Visual Cortex Slice: Following decapitation of the rat, the brain was rapidly removed and immersed in ice-cold artificial cerebrospinal fluid (ACSF) containing 124 mM NaCl, 3 mM KCl, 1.25 mM KH2PO4, 3.4 mM CaCl2, 2.5 mM MgSO4, 26 mM NaHCO3, and 10 mM D-glucose. A block of visual cortex was created by removing the frontal 2/3 portion of the brain and the cerebellum. Coronal visual cortex slices of 375 μm were prepared from adult Sprague Dawley (SD) rats using a vibratome (VT 1000 S, Leica). The slices were maintained in an interface recording chamber perfused with preheated ACSF. Slices were continuously perfused with this solution at a rate of 1.00-1.50 ml/min while the surface of the slices was exposed to warm, humidified 95% O2/5% CO2 and maintained at 31±1° C. Visual cortex slices were allowed to recover for 1 hr before recording began. […] This was repeated 2 additional times with a 1 minute intertrain interval, and the level of LTP was recorded for at least 30 min. Changes in amplitude of the synaptic response were used to measure the extent of LTP because it was determined to be the more consistent parameter than the slope of the response. […] Statistical comparisons were done with LTP values recorded at 30 minutes after induction.

[2] = system: blue-light treated Long-Evans rats; assay: Contrast sensitivity by sweep VEP in rats with retinal damage induced by blue-light exposure; assay type: in vivo, rat; conditions: 100 or 600 mg/kg injected, saline control, cross-over; measured 30 minutes after treatment; spatial frequency 0.575 cpd; sixteen (600 mg/kg) and fifty weeks (100 mg/kg) after blue-light treatment; FIG. 3
Protocol: Two doses of D-serine were tested and vehicle (saline) was used as a control. Half of the rats were injected with either 100 or 600 mg/kg D-serine and the other half with saline in the first test; cross-over exposure took place one week later; the spatial frequencies were fixed at 0.575 cycles per degree (cpd). In FIG. 3, the mean values of contrast sensitivity are shown for rats treated with D-serine or saline, with a baseline taken prior to treatment (“pre”) and the contrast sensitivity measured 30 minutes after treatment (“post”).
Sweep visually evoked potential (sweep VEP, sVEP), which was first introduced by Regan in 1973, has become an important technique to measure visual function (VF). It is an objective method that can be used to assess contrast sensitivity (CS) in infants, young children and people with special needs. It was adapted to measure CS in animals.
VEP recording: The recording electrodes were permanently implanted into the right visual cortex of Long Evans rats at lambda and 4.5 mm lateral to the midline, to a depth of 800 microns (layer III/IV). […]
Visual stimuli: Stimuli were presented on a CRT computer monitor and consist of full-field sine-wave gratings at fixed special frequency (0.5, 0.575 or 0.65 cpd in FIG. 1 and 0.575 cpd in FIG. 2), reversing at 6.25 Hz. […] Contrast sensitivity (CS) is calculated as 1/CT.

[3] = system: slices of kitten visual cortex; conditions: Neuroscience Letters 303 (2001) 95-98; cited from earlier work

## N[C@H](CO)C(=O)O [D-serine]
[1]
  long-term potentiation (LTP) in the primary visual cortex: dose-dependently facilitates long-term potentiation (LTP); also recorded: significantly enhanced the LTP
[2]
  contrast sensitivity: improved the contrast sensitivity; also recorded: dose-dependent improvement in contrast sensitivity; also recorded: enhances contrast sensitivity and visual function
[3]
  LTP enhancement by D-serine alone: did not enhance LTP
  effect on LTP suppression by the co-agonist site antagonist 7-chlorokynurenic acid: only produced a reversal of the suppressant effects
